Experimental data: patent publication US10927086B2, “Substituted sulfoximine compounds as indoleamine 2,3-dioxygenase (IDO) inhibitors” (Merck Sharp & Dohme Corp., priority 2017, dated 2021)

What was measured:
IDO1 [1] = molecular target: T1, IDO1 (Homo sapiens (Human), UniProt P14902); test: IDO1 Cellular Assay in Hela Cells Stimulated with IFNγ; type: cell-based; settings: about 48 hours, read-out: IDO1 HELA Cell Assay, IC50
Experimental: Hela cells were cultured in complete Hela culture medium (90% EMEM, 10% heat-inactivated fetal bovine serum) and expanded to about 1×10^9 cells. The cells were then collected and frozen down at 10×10^6 cells/vial in 1 mL frozen medium (90% complete Hela culture medium, 10% DMSO)
Compounds to be tested were serially diluted in ten 3-fold steps in DMSO starting from 10 mM DMSO stocks in Echo low volume plate(s). Compound dilutions or DMSO alone were then dispensed from the dilution plate(s) into Greiner black 384-well assay plate(s) (catalog #781086, 50 nL/well) using an Echo 550 acoustic liquid handler (Labcyte).
Frozen Hela cells were thawed and transferred into Hela assay medium (99% complete Hela culture medium, 1% Pen/Strep) with 20 mL medium/vial of cells. The cells were spun down at 250 g in a table top centrifuge for 5 min and suspended in same volume of Hela assay medium. The cells were then counted and adjusted to a density of 2×10^5 cells/ml in Hela assay medium. Sterile L-tryptophan were added to the cells with final concentration of 300 uM L-tryptophan. A small aliquot (2 mL/plate) of Hela cells were set aside and were not treated with IFNγ, to serve as the Max-E control. The rest of Hela cells were added with sterile IFNγ (Cat #285-IF, R & D systems) with a final concentration of 100 ng/mL.
Hela cells with and without IFNγ were dispensed to the respective wells of 384-well assay plates containing the compounds. The plates were incubated for about 48 hours at a 37° C., 5% CO2 incubator. Afterwards, 12 μL of 0.5 M methyl isonipecotate in dimethyl sulfoxide were added into each well and the plates were sealed and incubated at 37° C. without CO2 overnight. The plates were centrifuged for 1 min at 200×g. The resulting fluorescence was measured in a Spectramax plate reader (Molecular Devices) with a 400 nm excitation filter and a 510 nm emission filter.
The fluorescence intensity of each well was corrected for the background observed in wells with non-IFNγ-treated cells and was expressed as a fraction of the intensity observed in wells of IFNγ-treated cells and DMSO only. Potencies were calculated by linear least squares fit to the four parameter logistic IC50 equation.
Target sequence in this assay (P14902 whole entry): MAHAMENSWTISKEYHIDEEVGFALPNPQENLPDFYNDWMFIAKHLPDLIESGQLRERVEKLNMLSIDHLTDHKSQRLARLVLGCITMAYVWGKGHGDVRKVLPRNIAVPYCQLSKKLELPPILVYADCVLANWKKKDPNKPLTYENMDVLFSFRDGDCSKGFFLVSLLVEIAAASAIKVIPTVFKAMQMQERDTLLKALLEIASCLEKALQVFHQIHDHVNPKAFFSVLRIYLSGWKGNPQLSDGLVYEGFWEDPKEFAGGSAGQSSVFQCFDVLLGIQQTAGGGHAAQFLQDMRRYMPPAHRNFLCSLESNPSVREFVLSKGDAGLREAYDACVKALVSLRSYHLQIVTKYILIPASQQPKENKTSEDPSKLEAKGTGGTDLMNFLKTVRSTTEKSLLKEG

IDO1 [2] = molecular target: T1, IDO1; test: IDO1 Enzyme Assay; type: biochemical; settings: HIS-tagged recombinant IDO1, fluorescence readout
Experimental: Compounds to be tested were serially diluted in ten 3-fold steps in DMSO starting from 10 mM DMSO stocks. Compound dilutions or DMSO alone were then dispensed from the dilution plate into a Greiner black 384-well assay plate (catalog #781086) using an Echo 555 acoustic liquid handler (Labcyte).
HIS-tagged IDO1 protein was recombinantly expressed in Escherichia coli using ZYP5052 autoinduction media supplemented with 500 μM delta aminolevulinic acid for 48 h at 16° C. IDO1 protein was purified using Ni^2+-affinity resin and size exclusion chromatography. Purified protein was then diluted in assay buffer (50 mM Tris pH 7.0, 1% glycerol, 20 μM methylene blue, 0.05% Tween-20, 20 mM sodium ascorbate, 100 units/mL catalase to obtain a final IDO1 concentration of 40 nM. IDO1 solution […] or buffer alone ([…]) were dispensed to wells of the assay plate using a BioRAPTR liquid dispenser (Beckman Coulter). Assay plates containing compound and IDO1 enzyme were incubated at RT for 30 min. Afterwards, 10 μL of 400 μM tryptophan in assay buffer were added to each well of the assay plate using a BioRAPTR liquid dispenser. Plates were incubated at RT for 60 min and reactions were quenched by addition of 10 μL of 0.5 M methyl isonipecotate in dimethyl sulfoxide. Plates were sealed and incubated at 37° C. for 4 h or 50° C. for 2 h. The plates are allowed to cool and then centrifuged for 1 min at 1000×g. The resulting fluoresence was measured in an Envision plate reader (Perkin Elmer) with a 400/25 nm excitation filter and an 510/20 nm emission filter.
Potencies were calculated by linear least squares fit to the four parameter logistic IC50 equation.
Target sequence in this assay (P14902 whole entry, species assumed): as the sequence (P14902 whole entry) above

Row | SMILES | IC50 (IDO1 [1]) | IC50 (IDO1 [2])
1 | CS(=N)(=O)N[C@H]1C[C@@H](Oc2nonc2/C(=N\O)N[C@@H]2Cc3ccc(F)cc32)C1 (single isomer, unassigned) [Example 62] | 183 nM | 147 nM
2 | CS(=N)(=O)N1CCO[C@@H](CNc2nonc2/C(=N\O)N[C@@H]2Cc3ccc(F)cc32)C1 (single isomer, unassigned) [Example 64] | 200 nM | 83 nM
3 | C[S@](=N)(=O)C1CC(Nc2nonc2/C(=N\O)N[C@@H]2Cc3ccc(F)cc32)C1 (single isomer, unassigned) [Example 73] | 85.4 nM | 63.9 nM
4 | CS(=N)(=O)C1CC2(CC(Nc3nonc3/C(=N\O)N[C@@H]3Cc4ccc(F)cc43)C2)C1 (single isomer, unassigned) [Example 74] | 32.2 nM | 73.7 nM
5 | CS(=N)(=O)C1CC2(CC(Nc3nonc3/C(=N\O)N[C@@H]3Cc4ccc(F)cc43)C2)C1 (single isomer, unassigned) [Example 75] | 40.3 nM | 90.4 nM
6 | CS(=N)(=O)CCC(O)CNc1nonc1/C(=N\O)N[C@@H]1Cc2ccc(F)cc21 (single isomer, unassigned) [Example 78] | 74.8 nM | 57.8 nM
7 | CS(=N)(=O)CCC(O)CNc1nonc1/C(=N\O)N[C@@H]1Cc2ccc(F)cc21 (single isomer, unassigned) [Example 80] | 68.5 nM | 94.5 nM
8 | CS(=N)(=O)CCC(O)CNc1nonc1/C(=N\O)N[C@@H]1Cc2ccc(F)cc21 (single isomer, unassigned) [Example 81] | 62.8 nM | 95 nM
9 | CS(=N)(=O)CC12CC(Nc3nonc3/C(=N\O)N[C@@H]3Cc4ccc(F)cc43)(C1)C2 (single isomer, unassigned) [Example 82] | 82 nM | 91.7 nM
10 | CC(O)CS(=N)(=O)CCNc1nonc1/C(=N\O)N[C@@H]1Cc2ccc(F)cc21 (single isomer, unassigned) [Example 84] | 55.2 nM | 56.8 nM
11 | CC(O)CS(=N)(=O)CCNc1nonc1/C(=N\O)N[C@@H]1Cc2ccc(F)cc21 (single isomer, unassigned) [Example 85] | 49.7 nM | 49.5 nM
12 | CC(O)CS(=N)(=O)CCNc1nonc1/C(=N\O)N[C@@H]1Cc2ccc(F)cc21 (single isomer, unassigned) [Example 86] | 40.5 nM | 47.4 nM
13 | CC(O)CS(=N)(=O)CCNc1nonc1/C(=N\O)N[C@@H]1Cc2ccc(F)cc21 (single isomer, unassigned) [Example 87] | 51.9 nM | 46.1 nM
14 | CS(=N)(=O)NCCNc1nonc1/C(=N/O)N[C@H]1Cc2ccc(F)cc21 (stereo partly drawn) [Example 11, N—((S)-4-fluorobicyclo[4.2.0]octa-1(6),2,4-trien-7-yl)-N′-hydroxy-4-((2-(methylsulfonoamidimidamido)ethyl)amino)-1,2,5-oxadiazole-3-carboximidamide] | 27.4 nM | 38.7 nM
15 | CS(=N)(=O)CCNC(=O)CNc1nonc1/C(=N/O)N[C@H]1Cc2ccc(F)cc21 (stereo partly drawn) [Example 12, 2-((4-(N-((S)-4-fluorobicyclo[4.2.0]octa-1(6),2,4-trien-7-yl)-N′-hydroxycarbamimidoyl)-1,2,5-oxadiazol-3-yl)amino)-N-(2-(S-methylsulfonimidoyl)ethyl)acetamide] | 114 nM | 49.3 nM
16 | CS(=N)(=O)NCCCCNc1nonc1/C(=N/O)N[C@H]1Cc2ccc(F)cc21 (stereo partly drawn) [Example 53, N-[(7S)-4-fluorobicyclo[4.2.0]octa-1,3,5-trien-7-yl]-N′-hydroxy-4-({4-[(S-methylsulfonimidoyl)amino]butyl}amino)-1,2,5-oxadiazole-3-carboximidamide] | 45.1 nM | 69.4 nM
17 | CN(CCNc1nonc1/C(=N\O)N[C@H]1Cc2ccc(F)cc21)S(C)(=N)=O (stereo partly drawn) [Example 54, N-[(7S)-4-fluorobicyclo[4.2.0]octa-1,3,5-trien-7-yl]-N′-hydroxy-4-({2-[methyl(S-methylsulfonimidoyl)amino]ethyl}amino)-1,2,5-oxadiazole-3-carboximidamide] | 102 nM | 108 nM

The remaining compounds from weak to strong by IC50 (IDO1 [1]), led by results:

Row | IC50 (IDO1 [1]) | IC50 (IDO1 [2]) | SMILES
18 | 201 nM | 237 nM | CN=S(C)(=O)CCNC(=O)CNc1nonc1/C(=N/O)N[C@H]1Cc2ccc(F)cc21 (stereo partly drawn) [Example 40, N-[2-(N,S-dimethylsulfonimidoyl)ethyl]-N~2~-(4-{N-[(7S)-4-fluorobicyclo[4.2.0]octa-1,3,5-trien-7-yl]-N′-hydroxycarbamimidoyl}-1,2,5-oxadiazol-3-yl)glycinamide]
19 | 140 nM | 63.7 nM | CN=S(C)(=O)NCCNc1nonc1/C(=N\O)N[C@H]1Cc2ccc(F)cc21 (single isomer, unassigned) [Example 67]
20 | 128 nM | 81.6 nM | CS(=N)(=O)N[C@H]1C[C@@H](Oc2nonc2/C(=N\O)N[C@@H]2Cc3ccc(F)cc32)C1 (single isomer, unassigned) [Example 61]
21 | 91 nM | 77.6 nM | CS(=N)(=O)CCC(O)CNc1nonc1/C(=N\O)N[C@@H]1Cc2ccc(F)cc21 (single isomer, unassigned) [Example 79]
22 | 83.9 nM | 81.5 nM | CS(=N)(=O)CC12CC(Nc3nonc3/C(=N\O)N[C@@H]3Cc4ccc(F)cc43)(C1)C2 (single isomer, unassigned) [Example 83]
23 | 72.3 nM | 80 nM | CS(=N)(=O)N1CC(CNc2nonc2/C(=N\O)N[C@@H]2Cc3ccc(F)cc32)C1 (single isomer, unassigned) [Example 71]
24 | 63.5 nM | 49.5 nM | C[S@](=N)(=O)C1CC(Nc2nonc2/C(=N\O)N[C@@H]2Cc3ccc(F)cc32)C1 (single isomer, unassigned) [Example 72]
25 | 59.6 nM | 80.8 nM | CN=S(C)(=O)NCCNc1nonc1/C(=N\O)N[C@H]1Cc2ccc(F)cc21 (single isomer, unassigned) [Example 66]
26 | 53.5 nM | 44.9 nM | CON=[S@](C)(=O)CCNc1nonc1/C(=N/O)NC1Cc2ccc(F)cc21 (single isomer, unassigned) [Example 90]
27 | 48.5 nM | 64.6 nM | N=S(=O)(CCNc1nonc1/C(=N\O)N[C@@H]1Cc2ccc(F)cc21)C1CC1 (single isomer, unassigned) [Example 69]
28 | 44.6 nM | 59.1 nM | N=S(=O)(CCNc1nonc1/C(=N\O)N[C@@H]1Cc2ccc(F)cc21)C1CC1 (single isomer, unassigned) [Example 68]
29 | 41.8 nM | 47.2 nM | CON=[S@](C)(=O)CCNc1nonc1/C(=N/O)NC1Cc2ccc(F)cc21 (single isomer, unassigned) [Example 91]
30 | 41.6 nM | 79.7 nM | CS(=N)(=O)N1CC(CNc2nonc2/C(=N\O)N[C@@H]2Cc3ccc(F)cc32)C1 (single isomer, unassigned) [Example 70]
31 | 25.7 nM | 48.2 nM | N=S(N)(=O)CCCNc1nonc1/C(=N\O)NC1Cc2ccc(F)cc21 (stereo in doubt) [Example 65, 4-{[3-(S-aminosulfonimidoyl)propyl]amino}-N-[(7S)-4-fluorobicyclo[4.2.0]octa-1,3,5-trien-7-yl]-N′-hydroxy-1,2,5-oxadiazole-3-carboximidamide]
32 | 22.7 nM | 34.1 nM | CS(=N)(=O)N1CC2(CC(Nc3nonc3/C(=N\O)N[C@@H]3Cc4ccc(F)cc43)C2)C1 (single isomer, unassigned) [Example 77]
33 | 17.6 nM | 39.9 nM | CS(=N)(=O)N1CC2(CC(Nc3nonc3/C(=N\O)N[C@@H]3Cc4ccc(F)cc43)C2)C1 (single isomer, unassigned) [Example 76]
